Paper PMC8750527 (Cancers, 2021)
Read-outs that look alike come from different tables or passages of the source.

Experiments:
[1] = test system: HDF; assay: MTT assay, 48 h exposure, human dermal fibroblasts; format: cell-based
Protocol: (§1) HDF (3000 cells), C8-D1A (5000 cells), D458 (5000 cells), DAOY (2000 cells), HD-MB03 (10,000 cells) and CHLA-01-Med (10,000 cells) were seeded at an approximate confluency of 50% in 96-well plates (Corning Inc., Corning, NY, USA) in 100 µL medium per well. A range from 50 nM to 150 µM of every drug was tested. The effects of the antiangiogenic compounds were measured using a 3-[4,5-dimethylthiazol-2yl]-diphenyltetrazolium bromide (MTT) colorimetric assay (Sigma, Lyon, France) according to the manufacturer’s instructions. When applicable, IC50 was calculated using the nonlinear regression method of the Prism 5 software (Graphpad Software Inc., San Diego, CA, USA). […] An MTT assay was conducted as described above to assess the fitness of the cells.

[2] = test system: C8-D1A; assay: MTT assay, 48 h exposure, murine primary astrocytes; format: cell-based
Protocol: as §1

[3] = test system: DAOY; assay: MTT assay, 48 h exposure, DAOY MB cells; format: cell-based, human; conditions: for IC50: MTT, 48 h exposure, mean ± SEM
Protocol: as §1

[4] = test system: HD-MB03; assay: MTT assay, 48 h exposure, HD-MB03 MB cells; format: cell-based, human; conditions: for IC50: MTT, 48 h exposure, mean ± SEM
Protocol: as §1

[5] = test system: D458; assay: MTT assay, 48 h exposure, D458 MB cells; format: cell-based, human; conditions: for IC50: MTT, 48 h exposure, mean ± SEM
Protocol: as §1

[6] = test system: CHLA-01-Med; assay: MTT assay, 48 h exposure, CHLA-01-Med MB cells; format: cell-based, human
Protocol: as §1

[7] = test system: MB cells; assay: Cell viability, propidium iodine incorporation, MB cells; format: cell-based, human; conditions: 48 h, 5 µM
Protocol: (§2) Cell viability assays were conducted using a propidium iodine incorporation technique with an ADAM-sHIT automated cell counter (NanoEnTek, Gyeonggi-do, Korea) according to the manufacturer’s protocol.

[8] = test system: HDF; assay: Cell viability, propidium iodine incorporation, HDF; format: cell-based, human; conditions: 48 h; axitinib, cabozantinib 5 µM, etoposide 1 µM
Protocol: as §2

[9] = test system: C8-D1A astrocytes; assay: Cell viability, propidium iodine incorporation, C8-D1A; format: cell-based, murine; conditions: 48 h; axitinib, cabozantinib, sunitinib 5 µM, etoposide 1 µM
Protocol: as §2

`COc1cc2nccc(Oc3ccc(NC(=O)C4(C(=O)Nc5ccc(F)cc5)CC4)cc3)c2cc1OC` [Cabozantinib, cabozantinib] showed an IC50 ([1]; Homo sapiens, HDF, Table 1, normal cells, mean ± SEM) of 4.1 ± 1.9 µM, an IC50 ([2]; Mus musculus, C8-D1A, Table 1, normal cells, mean ± SEM, read-out: IC50 (µM) C8D1A) of 4 ± 2.2 µM and an IC50 ([3]; Homo sapiens, Daoy, Table 1) of 8.3 ± 1.2 µM. The “Specificity Index relative to C8D1A, DAOY” value ([3]; ratio IC50 C8-D1A / IC50 DAOY) was 0.48, the “Specificity Index relative to HDF, DAOY” value ([3]; ratio IC50 HDF / IC50 DAOY) was 0.49 and the IC50 ([4]; Homo sapiens, HD-MB03, Table 1) was 0.78 ± 0.2 µM. The “Specificity Index relative to C8D1A, HDMB” value ([4]; ratio IC50 C8-D1A / IC50 HD-MB03) was 5.13, the “Specificity Index relative to HDF, HD-MB03” value ([4]; ratio IC50 HDF / IC50 HD-MB03) was 5.26 and the IC50 ([5]; Homo sapiens, Table 1) was 5.1 ± 1.6 µM. The “Specificity Index relative to C8D1A, D458” value ([5]; ratio IC50 C8-D1A / IC50 D458) was 0.78, the “Specificity Index relative to HDF, D458” value ([5]; ratio IC50 HDF / IC50 D458) was 0.80 and the IC50 ([6]; Homo sapiens, Table 1, MTT, 48 h exposure, mean ± SEM) was 11.4 ± 2.1 µM. For the same compound, the “Specificity Index relative to C8D1A, CHLA-01-Med” value ([6]; ratio IC50 C8-D1A / IC50 CHLA-01-Med) was 0.35, the “Specificity Index relative to HDF, CHLA-01-Med” value ([6]; ratio IC50 HDF / IC50 CHLA-01-Med) was 0.36 and the “viability of MB cells” value [7] was “decreased the viability of most MB cells”. For the same compound, the “viability of HDF normal cells” value [8] was “no effect on the viability” and the “viability of C8-D1A normal cells” value [9] was “no effect on the viability”.
With `N.N.O=C([O-])C1(C(=O)[O-])CCC1.[Pt+2]` [Carboplatin, carboplatin] the IC50 ([1]; Table 3, mean ± SEM) was greater than 20 µM, the IC50 ([2]; Table 3, mean ± SEM) was greater than 20 µM and the IC50 ([3]; Table 3) was greater than 20 µM. For the same compound, the IC50 ([4]; Table 3) was greater than 20 µM and the IC50 ([5]; Table 3) was greater than 20 µM.
